Experiment: recombinant UMI read abundance after kanamycin selection (control-corrected) (log10(CPM+1)); higher = more efficient recombination; extreme values may be limits of the assay; sequences stand for … in AGTGCAGAGAAAATCGGCCAGTTTTCTCTGCCTGCAGTCCGCATGCCGTGGGACCCCTTGGGTTCTAACCTGTTGCCTAGATTTATGCAGCGGACTGCCTTTCTCCCAAAGTGATAAACCGG…AGGTTGGTTTCACT; site = the 11-nt donor
Outline: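 Each donor and donor-binding-loop pair was tracked by a 12-nt UMI on a plasmid carrying a promoterless kanamycin gene. With a second plasmid supplying a fixed target and T7-inducible IS621 bridge recombinase, the pool was plated in Escherichia coli on IPTG (0.07 mM) plus kanamycin or unselected. Sequencing of recombinant UMIs across the donor–target junction gave counts expressed as log10(CPM+1) after replicate averaging and control-derived scaling.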
With “TCCAACGCATGGACCGGTTTTCCCGGTAATCCGTATTTGCG (site TCCATCGCTCG)” the “recombinant UMI read abundance (log10)” value was 0.00881.
In the case of “TCCAAGGCATGGACCGGTTTTCCCGGTAATCCGTATTTGTC (site TCCAAGGCTGA)”, the “recombinant UMI read abundance (log10)” value is reported as 0.
With “TCCAATGCATGGACCGGTTTTCCCGGTAATCCGTATTTGCC (site TCCAATACTGG)” the “recombinant UMI read abundance (log10)” value was 0.
In the case of “TCCAATGCATGGACCGGTTTTCCCGGTAATCCGTATTTGCC (site TCCAATCCTGG)”, the “recombinant UMI read abundance (log10)” value is reported as 0.
For “TCCAATGCATGGACCGGTTTTCCCGGTAATCCGTATTTGCC (site TCCAATGCTGG)”, the “recombinant UMI read abundance (log10)” value was 0.
In the case of “TCCAATGCATGGACCGGTTTTCCCGGTAATCCGTATTTGCC (site TCCAATTCTGG)”, the “recombinant UMI read abundance (log10)” value is reported as 0.
For “TCCAATTCATGGACCGGTTTTCCCGGTAATCCGTATTTGCA (site TCCAATTCTAG)”, the “recombinant UMI read abundance (log10)” value was 0.
For “TCCAATTCATGGACCGGTTTTCCCGGTAATCCGTATTTGCA (site TCCAATTCTCG)”, the “recombinant UMI read abundance (log10)” value was 0.
In the case of “TCCAATTCATGGACCGGTTTTCCCGGTAATCCGTATTTGCA (site TCCAATTCTGG)”, the “recombinant UMI read abundance (log10)” value is reported as 0.
In the case of “TCCAATTCATGGACCGGTTTTCCCGGTAATCCGTATTTGCA (site TCCAATTCTTG)”, the “recombinant UMI read abundance (log10)” value is reported as 0.
In the case of “TCCAATTCATGGACCGGTTTTCCCGGTAATCCGTATTTGCG (site TCCAATTCTAG)”, the “recombinant UMI read abundance (log10)” value is reported as 0.
For “TCCAATTCATGGACCGGTTTTCCCGGTAATCCGTATTTGCG (site TCCAATTCTCG)”, the “recombinant UMI read abundance (log10)” value was 0.
For “TCCAATTCATGGACCGGTTTTCCCGGTAATCCGTATTTGCG (site TCCAATTCTGG)”, the “recombinant UMI read abundance (log10)” value was 0.
With “TCCAATTCATGGACCGGTTTTCCCGGTAATCCGTATTTGCG (site TCCAATTCTTG)” the “recombinant UMI read abundance (log10)” value was 0.
In the case of “TCCACCACATGGACCGGTTTTCCCGGTAATCCGTATTTGCG (site TCCACCACTCG)”, the “recombinant UMI read abundance (log10)” value is reported as 0.0102.
For “TCCACCACATGGACCGGTTTTCCCGGTAATCCGTATTTGCG (site TCCACCCCTCG)”, the “recombinant UMI read abundance (log10)” value was 0.0154.
For “TCCACCACATGGACCGGTTTTCCCGGTAATCCGTATTTGCG (site TCCACCGCTCG)”, the “recombinant UMI read abundance (log10)” value was 0.
For “TCCACCACATGGACCGGTTTTCCCGGTAATCCGTATTTGCG (site TCCACCTCTCG)”, the “recombinant UMI read abundance (log10)” value was 0.00608.
For “TCCACCGCATGGACCGGTTTTCCCGGTAATCCGTATTTGCG (site ACCACCGCTCG)”, the “recombinant UMI read abundance (log10)” value was 0.0347.
With “TCCACCGCATGGACCGGTTTTCCCGGTAATCCGTATTTGCG (site CCCACCGCTCG)” the “recombinant UMI read abundance (log10)” value was 0.0205.
For “TCCACCGCATGGACCGGTTTTCCCGGTAATCCGTATTTGCG (site GCCACCGCTCG)”, the “recombinant UMI read abundance (log10)” value was 0.0147.
In the case of “TCCACCGCATGGACCGGTTTTCCCGGTAATCCGTATTTGCG (site TACACCGCTCG)”, the “recombinant UMI read abundance (log10)” value is reported as 0.0145.
In the case of “TCCACCGCATGGACCGGTTTTCCCGGTAATCCGTATTTGCG (site TCAACCGCTCG)”, the “recombinant UMI read abundance (log10)” value is reported as 0.00833.
For “TCCACCGCATGGACCGGTTTTCCCGGTAATCCGTATTTGCG (site TCCAACGCTCG)”, the “recombinant UMI read abundance (log10)” value was 0.
In the case of “TCCACCGCATGGACCGGTTTTCCCGGTAATCCGTATTTGCG (site TCCACAGCTCG)”, the “recombinant UMI read abundance (log10)” value is reported as 0.00578.
With “TCCACCGCATGGACCGGTTTTCCCGGTAATCCGTATTTGCG (site TCCACCACTCG)” the “recombinant UMI read abundance (log10)” value was 0.00973.
With “TCCACCGCATGGACCGGTTTTCCCGGTAATCCGTATTTGCG (site TCCACCCCTCG)” the “recombinant UMI read abundance (log10)” value was 0.0195.
With “TCCACCGCATGGACCGGTTTTCCCGGTAATCCGTATTTGCG (site TCCACCGCTAG)” the “recombinant UMI read abundance (log10)” value was 0.00776.
With “TCCACCGCATGGACCGGTTTTCCCGGTAATCCGTATTTGCG (site TCCACCGCTCA)” the “recombinant UMI read abundance (log10)” value was 0.0193.
For “TCCACCGCATGGACCGGTTTTCCCGGTAATCCGTATTTGCG (site TCCACCGCTCC)”, the “recombinant UMI read abundance (log10)” value was 0.0232.
In the case of “TCCACCGCATGGACCGGTTTTCCCGGTAATCCGTATTTGCG (site TCCACCGCTCG)”, the “recombinant UMI read abundance (log10)” value is reported as 0.0267.
With “TCCACCGCATGGACCGGTTTTCCCGGTAATCCGTATTTGCG (site TCCACCGCTCT)” the “recombinant UMI read abundance (log10)” value was 0.0151.
In the case of “TCCACCGCATGGACCGGTTTTCCCGGTAATCCGTATTTGCG (site TCCACCGCTGG)”, the “recombinant UMI read abundance (log10)” value is reported as 0.
For “TCCACCGCATGGACCGGTTTTCCCGGTAATCCGTATTTGCG (site TCCACCGCTTG)”, the “recombinant UMI read abundance (log10)” value was 0.
In the case of “TCCACCGCATGGACCGGTTTTCCCGGTAATCCGTATTTGCG (site TCCACCTCTCG)”, the “recombinant UMI read abundance (log10)” value is reported as 0.00739.
With “TCCACCGCATGGACCGGTTTTCCCGGTAATCCGTATTTGCG (site TCCACGGCTCG)” the “recombinant UMI read abundance (log10)” value was 0.
With “TCCACCGCATGGACCGGTTTTCCCGGTAATCCGTATTTGCG (site TCCACTGCTCG)” the “recombinant UMI read abundance (log10)” value was 0.0248.
In the case of “TCCACCGCATGGACCGGTTTTCCCGGTAATCCGTATTTGCG (site TCCAGCGCTCG)”, the “recombinant UMI read abundance (log10)” value is reported as 0.0215.
For “TCCACCGCATGGACCGGTTTTCCCGGTAATCCGTATTTGCG (site TCCATCGCTCG)”, the “recombinant UMI read abundance (log10)” value was 0.0351.
For “TCCACCGCATGGACCGGTTTTCCCGGTAATCCGTATTTGCG (site TCCCCCGCTCG)”, the “recombinant UMI read abundance (log10)” value was 0.1.
For “TCCACCGCATGGACCGGTTTTCCCGGTAATCCGTATTTGCG (site TCCGCCGCTCG)”, the “recombinant UMI read abundance (log10)” value was 0.0234.
With “TCCACCGCATGGACCGGTTTTCCCGGTAATCCGTATTTGCG (site TCCTCCGCTCG)” the “recombinant UMI read abundance (log10)” value was 0.0203.
With “TCCACCGCATGGACCGGTTTTCCCGGTAATCCGTATTTGCG (site TCGACCGCTCG)” the “recombinant UMI read abundance (log10)” value was 0.023.
In the case of “TCCACCGCATGGACCGGTTTTCCCGGTAATCCGTATTTGCG (site TCTACCGCTCG)”, the “recombinant UMI read abundance (log10)” value is reported as 0.0356.
With “TCCACCGCATGGACCGGTTTTCCCGGTAATCCGTATTTGCG (site TGCACCGCTCG)” the “recombinant UMI read abundance (log10)” value was 0.0462.
With “TCCACCGCATGGACCGGTTTTCCCGGTAATCCGTATTTGCG (site TTCACCGCTCG)” the “recombinant UMI read abundance (log10)” value was 0.00717.
In the case of “TCCACCTCATGGACCGGTTTTCCCGGTAATCCGTATTTGCG (site TCCACCACTCG)”, the “recombinant UMI read abundance (log10)” value is reported as 0.00715.
For “TCCACCTCATGGACCGGTTTTCCCGGTAATCCGTATTTGCG (site TCCACCCCTCG)”, the “recombinant UMI read abundance (log10)” value was 0.0186.
For “TCCACCTCATGGACCGGTTTTCCCGGTAATCCGTATTTGCG (site TCCACCGCTCG)”, the “recombinant UMI read abundance (log10)” value was 0.0129.
In the case of “TCCACCTCATGGACCGGTTTTCCCGGTAATCCGTATTTGCG (site TCCACCTCTCG)”, the “recombinant UMI read abundance (log10)” value is reported as 0.0255.
In the case of “TCCACGCCATGGACCGGTTTTCCCGGTAATCCGTATTTGTA (site ACCACGCCTTA)”, the “recombinant UMI read abundance (log10)” value is reported as 0.0141.
In the case of “TCCACGCCATGGACCGGTTTTCCCGGTAATCCGTATTTGTA (site CCCACGCCTTA)”, the “recombinant UMI read abundance (log10)” value is reported as 0.038.
For “TCCACGCCATGGACCGGTTTTCCCGGTAATCCGTATTTGTA (site GCCACGCCTTA)”, the “recombinant UMI read abundance (log10)” value was 0.00791.
For “TCCACGCCATGGACCGGTTTTCCCGGTAATCCGTATTTGTA (site TCCACGCCTTA)”, the “recombinant UMI read abundance (log10)” value was 0.0284.
In the case of “TCCACGGCATGGACCGGTTTTCCCGGTAATCCGTATTTGCG (site TCCACAGCTCG)”, the “recombinant UMI read abundance (log10)” value is reported as 0.0432.
For “TCCACGGCATGGACCGGTTTTCCCGGTAATCCGTATTTGCG (site TCCACCGCTCG)”, the “recombinant UMI read abundance (log10)” value was 0.023.
In the case of “TCCACGGCATGGACCGGTTTTCCCGGTAATCCGTATTTGCG (site TCCACGGCTCG)”, the “recombinant UMI read abundance (log10)” value is reported as 0.0249.

From the supplement of paper PMC11208160
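Note: IS621 bridge recombinase in Escherichia coli cells against a fixed T5 target plasmid.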
